What all share (assay type): binding
For test [1], the target named is T1, PIN1 (Homo sapiens, UniProt Q13526).
T1 construct: polyhistidine (N); made in house; host or cells: Escherichia coli BL21 (DE3)
Nature of the test: T1ρ relaxation NMR experiment, PIN1. As for the experimental part:
(§1) For comparison, the signal decay during a T1ρ NMR experiment was measured at the same sample conditions as the photo-CIDNP experiments (Table 2). The signal decay between two T1ρ relaxation delays of 10 and 400 ms is measured in the absence and presence of the PIN1 protein. The increase in signal decay is calculated as the ratio of the integral’s ratio, i.e., (Γ400ms/Γ10ms)PL/(Γ400ms/Γ10ms)L. The most affine binders, compounds 1 and 13, show a significant reduction of the T1ρ decay ratio upon PIN1 addition, witnessing an increase in the relaxation decay. […] The signal-to-noise of the T1ρ spectra were ca. 300 for a number of transients of 512, corresponding to a measurement time of 25 min, while the photo-CIDNP experiments provided a signal-to-noise of ca. 100 for a single-scan experiment corresponding to a two second’s experiment. […] The signal-to-noise of the STD NMR experiments[1] was only 25 and 19 for compounds 1 and 13, respectively, after 50 min measurement corresponding to a 512 transient’s experiment.
(§2) For the control binding experiments using ligand-induced chemical shift perturbation analysis, standard [^15N, ^1H]-HSQC spectra were measured. The detailed conditions for the 2D experiments acquired at 600 MHz ^1H NMR frequency were the 100 μM ^15N-labeled PDZ2 domain in the absence and presence of equimolar peptide in PDZ2 buffer and at a temperature of 298 K and 50 μM ^15N-labeled PIN1 in the absence and presence of 200 μM ligands in PIN1 buffer and at a temperature of 298 K, respectively. Typically, 220 (t1,max (^15N) = 47.6 ms) × 1024 (t2,max (^1H) = 60.8 ms) complex points, an interscan delay of 0.8 s, and 12 scans per increment were measured. The data was zero–filled to 2048 points in the direct proton dimension and to 256 points in the ^15N–dimension. Processing was done with a shifted cosine window function for both dimensions. […] The spinlock times were set at 10 and 400 ms. The STD experiments were measured at 298 K with 16,384 (tmax (^1H) = 974 ms) complex points and 512 scans per increment. The on-resonance saturation pulse was set at 0 ppm, and the off-resonance saturation pulse was set to 40 ppm with a saturation time of 1 s.

For test [2], the target named is T1, PIN1. Kind of test: [15N,1H]-HSQC titration series with increasing ligand concentration, PIN1. The note with it: values with * could not be fitted to a maximum, Kd most likely higher. As for the experimental part: (B) Chemical shift perturbation titration studies of the compounds with ^15N-labeled PIN1 measured by [^15N,^1H]-HSQC experiments and shown for residues T154 and A124 in the presence of increasing ligand concentrations. […]
as §2, with “Typically, 220 (t1,max (^15N) = 47.6 ms) × 1024 (t2,max (^1H) = 60.8 ms) complex points, an interscan delay of 0.8 s, and 12 scans per increment were measured.” left out, “increment.” for “increment. The on-resonance saturation pulse was set at 0 ppm, and the off-resonance saturation pulse was set to 40 ppm with a saturation time of 1 s.”
Figure S7: Chemical shift perturbation-based Kd determination of individual compounds binding to PIN1. The chemical shift displacement of the 15N-1H moieties of A124 (black) and T154 (red) PIN1 (y-axis) in dependence on the compound […]
The fits to the titrations are highlighted by a line and the Kd extracted is given in mM. Compound 13 titration series ranges 0, 80, 100, 200, 300, 600, 1000, […]
concentration; compounds 3, 10, and 11 range 0, 200, 500, 1000, 2000, 3000 µM concentration and all the samples contained 80 µM of PIN1 protein and were measured in PIN1 buffer at 298K. […]

In test [3] the target is T1, PIN1. Nature of the test: photo-CIDNP 1D 1H NMR fragment screening (polarization ratio) against PIN1. As for the experimental part: The combination of these two effects yields the quenching of the photo-CIDNP hyperpolarized signal in the case of binding to a protein, as L decreases and R1,eff increases.
It is also overexpressed in many human cancer cells.[16] It is thus regarded as a potential drug target, and several studies attempted to discover hits and unravel the structure–activity relationship.[3],[4],[36] […] The NMR experiments were performed using single-scan NMR experiments, comprising light irradiation, an excitation pulse, and a water suppression scheme, as described previously.[13] Although each experiment was recorded in only 2 s, the limiting step was the sample tube exchange. Indeed, the optic fiber needed to be plugged into the tubes while changing the samples, which required ca. 15 s per tube using a house-made connector tightening the tube and the optic fiber with O-rings (Figure S2). Removing the sample from and bringing the new sample into the spectrometer requires an additional 30 s, and a shimming step must be performed for each new tube (30 s).
As proposed in the theoretical part, the photo-CIDNP traces were recorded in the presence and absence of PIN1. The peak intensity and chemical shifts were analyzed pairwise to identify the hits. […] The reference apo-PIN1 sample was spiked with 1.9 μL of DMSO to compensate for the DMSO that is introduced upon fragment addition, as the fragments are stored in stock solutions of 5 mM 90% DMSO-d6 and 10% D2O.
The laser used was a Thorlabs L450P1600MM, a diode laser emitting at 450 nm. The laser light was coupled (using appropriate coupling optics) into an optical fiber (Thorlabs, FG950UEC) of length 10 m and a diameter of 0.95 mm. The end of the fiber was inserted into the sample solution inside the 3 mm NMR glass tube to a depth of about 5 mm above the NMR coil region. The library QC and the control binding experiments for PIN1 were measured on a Bruker Avance III HD 600 MHz spectrometer equipped with a cryoprobe and SampleJet.

The target of test [4] is T1, PIN1. Nature of the test: saturation transfer difference (STD) NMR, PIN1. Further details: key to STD: The observation of ligand signals in the STD NMR spectra detects a protein–ligand interaction; (+); the absence of a signal fails to detect protein–ligand interaction (−). The settings on record: 200 μM ligand with 20 μM protein. As for the experimental part:
as §1, §2

pKd: −log10 of the molar value. Where two headings read alike, the source gives them in different places.

What is called pKd is the negative decadic logarithm of the Kd, by convention in mol/L.

T1 sequence (Q13526 whole entry): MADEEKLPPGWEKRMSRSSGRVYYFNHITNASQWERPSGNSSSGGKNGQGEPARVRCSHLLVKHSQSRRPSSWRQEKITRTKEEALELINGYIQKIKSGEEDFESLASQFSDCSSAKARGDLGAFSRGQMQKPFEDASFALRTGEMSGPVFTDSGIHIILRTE

On to `Cc1cccc(-c2nc(C)c(C(=O)O)[nH]2)c1` [Compound 13, reference compound], for which the T1ρ decay ratio was 0.45 in test [1] (200 μM ligand, ±20 μM protein, (Γ400ms/Γ10ms)PL/(Γ400ms/Γ10ms)L) and 0.76 in test [1] (low concentration, same sample conditions: 20 μM ligand (compound 1: 5 μM), ±2 μM PIN1). In addition, the pKd in test [2] (fit of CSP build-up of residue A124, read-out: Kd A124) was 2.35; in test [2] (fit of CSP build-up of residue T154, read-out: Kd T154), 2.77. Besides, the polarization ratio is listed as 0.38 in test [3] (50 μM ligand, ±25 μM PIN1, 20 μM fluorescein, 0 = total binding, 1 = no interaction, hit <0.8) and 0.73 in test [3] (low concentration: 20 μM ligand (compound 1: 5 μM), ±2 μM PIN1, single scan). In addition, in test [4], the STD result is “+”. Besides, the “STD NMR observation” value in test [4] (512 transients) is listed as “shows a signal”.

These data come from PMC10251509, “Ultrafast Fragment Screening Using Photo-Hyperpolarized (CIDNP) NMR” (Journal of the American Chemical Society, 2023).
